Test results taken from US20210101905A1, “Development of Imaging and Therapeutic Glucose Analogues for Sodium Dependent Glucose Transporters” (Llnited States Government as represented by the Department …, priority 2019, published 2021).

How the values were obtained:
[1] = system: metastatic prostate cancer; conditions: men with metastatic prostate cancer, phase III; cited from earlier work
[2] = system: SGLTs and GLUTs; conditions: prior work; cited from earlier work
[3] = rat, in vivo; cited from earlier work
[4] = system: PC-3; assay: 6FGA uptake in PC-3 cells, with and without transporter inhibitors or sodium; assay type: cell-based, human; conditions: PC3 cell line
Experimental: See FIG. 2A-D. Its transport properties were evaluated in two human metastatic cancer cell lines: triple negative breast cancer MDA-MB-231 and human prostate cancer (PC-3). […] See also FIG. 5A, FIG. 5B, and FIG. 6.
The assays are performed from a modified protocol as we have done previously, and from flow cytometry formats (Zou ry al. (2005) J Biochem Biophys Methods 64:207-15; Landau et al. (2007) American journal of physiology Endocrinology and metabolism 293:E237-45). In brief, cells are grown to confluence using recommended growth media in 96-well plates. […] The cells are detached with trypsin and resuspended in PBS. The cells are analysed using flow cytometry with the Cy5.5 filter set (excitation 685 nm, exmission 710 nm) gated for 250,000 counts.

SMILES	transport by SGLTs / GLUTs [2]	effect of inhibitor on 6FGA uptake [4]	further results
[Cl][223Ra][Cl] [Xofigo, ^223RaCl2]	–	–	adverse events [1]: low rates of myelosuppression and few adverse events; overall survival [1]: improve overall survival
O=C[C@H](O)[C@@H](O)[C@H](O)[C@H](O)C[18F] [[18F]6FDG, 18F-labelled 6-fluoro-6-deoxy-D-glucose]	transported by SGLTs and GLUTs	–	activity in the bladder [3]: no activity was evident in the bladder; renal handling [3]: reabsorbed in proximal tubules of kidneys
OC[C@H]1OC(O)[C@H]([18F])[C@@H](O)[C@@H]1O (stereo partly drawn) [[^18F]FDG, ^18F-labeled 2-fluoro-2-deoxy-D-glucose]	poorly transported by SGLTs	–	–
C=C1[C@@H](C)[C@H]2[C@H](Cc3ccccc3)NC(=O)[C@]23OC(=O)/C=C/[C@H](O)CCC[C@@H](C)C/C=C/[C@H]3[C@@H]1O [cytochalasin B]	–	not blocked	–
O=C(CCc1ccc(O)cc1)c1c(O)cc(O)cc1O[C@@H]1O[C@H](CO)[C@@H](O)[C@H](O)[C@H]1O [phlorizin]	–	blocked	–
